Where “and” joins values, the source holds several entries; their conditions need not be identical. Equal values may be shown once. Inconclusive results and toxic doses are left out.
System: P388 leukemia ip, CD2F1 mice, survival T/C
Assay: NCI In Vivo Anticancer Drug Screen. Data for tumor model P388 Leukemia (intraperitoneal) in CD2F1 (CDF1) mice
Settings: endpoint: median survival time, higher = longer survival
Method in brief: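 Mice carrying the transplanted tumor received test compound or vehicle. Survival was recorded in each group, and the value is the treated-group measurement divided by that of the vehicle-treated control group.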

[1] = dose: 12.5 mg/kg/injection, schedule: Q01DX005 (ip), vehicle: Klucel (hydroxypropylcellulose) (HPC)
[2] = dose: 25.0 mg/kg/injection, schedule: Q01DX005 (ip), vehicle: Klucel (hydroxypropylcellulose) (HPC)
[3] = dose: 50.0 mg/kg/injection, schedule: Q01DX005 (ip), vehicle: Klucel (hydroxypropylcellulose) (HPC)
[4] = dose: 100.0 mg/kg/injection, schedule: Q01DX005 (ip), vehicle: Klucel (hydroxypropylcellulose) (HPC)
[5] = dose: 200.0 mg/kg/injection, schedule: Q01DX005 (ip), vehicle: Klucel (hydroxypropylcellulose) (HPC)
[6] = dose: 15.0 mg/kg/injection, schedule: Q01DX005 (ip), vehicle: Klucel (hydroxypropylcellulose) (HPC)
[7] = dose: 30.0 mg/kg/injection, schedule: Q01DX005 (ip), vehicle: Klucel (hydroxypropylcellulose) (HPC)
[8] = dose: 60.0 mg/kg/injection, schedule: Q01DX005 (ip), vehicle: Klucel (hydroxypropylcellulose) (HPC)
[9] = dose: 50.0 mg/kg/injection, schedule: Q01DX009 (ip), vehicle: Klucel (hydroxypropylcellulose) (HPC)
[10] = dose: 100.0 mg/kg/injection, schedule: Q01DX009 (ip), vehicle: Klucel (hydroxypropylcellulose) (HPC)
[11] = dose: 200.0 mg/kg/injection, schedule: Q01DX009 (ip), vehicle: Klucel (hydroxypropylcellulose) (HPC)
[12] = dose: 100.0 mg/kg/injection, schedule: Q01DX009 (ip), vehicle: saline with Tween-80
[13] = dose: 200.0 mg/kg/injection, schedule: Q01DX009 (ip), vehicle: saline with Tween-80

With `CCn1c2ccccc2c2cc(N/C=C/C3=[N+](C)c4ccccc4C3(C)C)ccc21` the T/C (dose: 1.56 mg/kg/injection, schedule: Q01DX009 (ip), vehicle: Klucel (hydroxypropylcellulose) (HPC)) was 107 % of control and 111 % of control, the T/C (dose: 3.12 mg/kg/injection, schedule: Q01DX009 (ip), vehicle: Klucel (hydroxypropylcellulose) (HPC)) was 100 % of control and 114 % of control and the T/C (dose: 6.25 mg/kg/injection, schedule: Q01DX009 (ip), vehicle: Klucel (hydroxypropylcellulose) (HPC)) was 116 % of control (2×) and 123 % of control. The T/C (dose: 12.5 mg/kg/injection, schedule: Q01DX009 (ip), vehicle: Klucel (hydroxypropylcellulose) (HPC)) was 109 % of control and the T/C (dose: 25.0 mg/kg/injection, schedule: Q01DX009 (ip), vehicle: Klucel (hydroxypropylcellulose) (HPC)) was 96 % of control.

With `CNCC1c2ccccc2CSc2c(OC)cccc21` (configuration not stated) the T/C (dose: 6.25 mg/kg/injection, schedule: Q01DX005 (ip), vehicle: Klucel (hydroxypropylcellulose) (HPC)) was 101 % of control, the T/C [1] was 98 % of control and the T/C [2] was 98 % of control.

With `CSc1nc(N)n2nc(C3CC3)cc2n1` the T/C (dose: 60.0 mg/kg/injection, schedule: Q01DX005 (ip), vehicle: saline with Tween-80) was 102 % of control, the T/C (dose: 120.0 mg/kg/injection, schedule: Q01DX005 (ip), vehicle: saline with Tween-80) was 100 % of control and the T/C (dose: 240.0 mg/kg/injection, schedule: Q01DX005 (ip), vehicle: saline with Tween-80) was 100 % of control.

In the case of `CC(=O)OC1C(C)C2CCC13CC=C(C)CC23` (configuration not stated), the T/C [3] is reported as 101 % of control, the T/C [4] is reported as 108 % of control and the T/C [5] is reported as 110 % of control.

In the case of `C/C(=C\c1ccc([N+](=O)[O-])cc1)C(=O)NC(C)C`, the T/C (dose: 50.0 mg/kg/injection, schedule: Q01DX005 (ip), vehicle: other) is reported as 102 % of control, the T/C (dose: 100.0 mg/kg/injection, schedule: Q01DX005 (ip), vehicle: other) is reported as 93 % of control and the T/C (dose: 200.0 mg/kg/injection, schedule: Q01DX005 (ip), vehicle: other) is reported as 105 % of control.

In the case of `COc1cc(OC)cc(N2C(N)=NC(N)=NC2(C)C)c1`, the T/C [1] is reported as 104 % of control, the T/C [2] is reported as 105 % of control and the T/C [3] is reported as 102 % of control and 107 % of control.

With `N=C(N)c1ccc(-c2ccc(-c3ccc(C(=N)N)cc3)s2)cc1` the T/C (dose: 12.5 mg/kg/injection, schedule: Q04DX003 (ip), vehicle: suspension in saline) was 106 % of control, the T/C (dose: 25.0 mg/kg/injection, schedule: Q04DX003 (ip), vehicle: suspension in saline) was 120 % of control and the T/C (dose: 100.0 mg/kg/injection, schedule: Q04DX003 (ip), vehicle: suspension in saline) was 169 % of control.

`CC(c1ccc(Cl)cc1)N(CCN(C)C)c1ccccn1` (configuration not stated) was tested, and the T/C [6] was 103 % of control, the T/C [7] was 104 % of control and the T/C [8] was 111 % of control and 95 % of control.

In the case of `O=C(O)CC1Sc2ccccc2NC1=O` (configuration not stated), the T/C [9] is reported as 100 % of control, the T/C [10] is reported as 108 % of control and the T/C [11] is reported as 108 % of control. The T/C (dose: 400.0 mg/kg/injection, schedule: Q01DX009 (ip), vehicle: Klucel (hydroxypropylcellulose) (HPC)) was 100 % of control.

`O=P(c1cccs1)(c1cccs1)c1cccs1` was tested, and the T/C [9] was 96 % of control, the T/C [10] was 92 % of control and the T/C [11] was 101 % of control.

In the case of `COc1cc(Br)cc(C(=O)N2CCc3ccccc32)c1OC`, the T/C (dose: 25.0 mg/kg/injection, schedule: Q01DX009 (ip), vehicle: other) is reported as 99 % of control, the T/C (dose: 50.0 mg/kg/injection, schedule: Q01DX009 (ip), vehicle: other) is reported as 96 % of control and the T/C (dose: 100.0 mg/kg/injection, schedule: Q01DX009 (ip), vehicle: other) is reported as 96 % of control. The T/C (dose: 200.0 mg/kg/injection, schedule: Q01DX009 (ip), vehicle: other) was 96 % of control and the T/C (dose: 400.0 mg/kg/injection, schedule: Q01DX009 (ip), vehicle: other) was 87 % of control.

With `O=[N+]([O-])c1ccc2nc(CC(O)(C(F)(F)F)C(F)(F)F)ccc2c1` the T/C [12] was 115 % of control, the T/C [13] was 90 % of control and the T/C (dose: 400.0 mg/kg/injection, schedule: Q01DX009 (ip), vehicle: saline with Tween-80) was 95 % of control.

`Cc1ccc(NC(=O)C(F)(F)F)cc1` was tested, and the T/C (dose: 50.0 mg/kg/injection, schedule: Q01DX009 (ip), vehicle: saline with Tween-80) was 113 % of control, the T/C [12] was 108 % of control and the T/C [13] was 108 % of control.

With `COC(=O)c1nc(=S)[nH]c(C(=O)OC)c1C(=O)c1cccc2ccccc12` the T/C (dose: 60.0 mg/kg/injection, schedule: Q01DX005 (ip), vehicle: Klucel + Tween-80) was 102 % of control, the T/C (dose: 120.0 mg/kg/injection, schedule: Q01DX005 (ip), vehicle: Klucel + Tween-80) was 95 % of control and the T/C (dose: 240.0 mg/kg/injection, schedule: Q01DX005 (ip), vehicle: Klucel + Tween-80) was 92 % of control.

In the case of `CN1CCC/C1=C\C(=O)c1ccco1`, the T/C [6] is reported as 100 % of control, the T/C [7] is reported as 103 % of control and the T/C [8] is reported as 109 % of control and 89 % of control.

`NC(=S)N/N=C/c1cn(-c2ccc([N+](=O)[O-])cc2)cn1` was tested, and the T/C (dose: 25.0 mg/kg/injection, schedule: Q04DX003 (ip), vehicle: Klucel (hydroxypropylcellulose) (HPC)) was 86 % of control, the T/C (dose: 50.0 mg/kg/injection, schedule: Q04DX003 (ip), vehicle: Klucel (hydroxypropylcellulose) (HPC)) was 86 % of control and the T/C (dose: 100.0 mg/kg/injection, schedule: Q04DX003 (ip), vehicle: Klucel (hydroxypropylcellulose) (HPC)) was 94 % of control.

With `CC(C)(C)C(O)c1cccnc1` (configuration not stated) the T/C (dose: 100.0 mg/kg/injection, schedule: Q04DX003 (ip), vehicle: saline with Tween-80) was 110 % of control and the T/C (dose: 200.0 mg/kg/injection, schedule: Q04DX003 (ip), vehicle: saline with Tween-80) was 101 % of control.

`NC1=C(O)C(=O)C(c2ccc3c(c2)OCO3)O1` (configuration not stated) was tested, and the T/C [8] was 92 % of control, the T/C (dose: 120.0 mg/kg/injection, schedule: Q01DX005 (ip), vehicle: Klucel (hydroxypropylcellulose) (HPC)) was 95 % of control and the T/C (dose: 240.0 mg/kg/injection, schedule: Q01DX005 (ip), vehicle: Klucel (hydroxypropylcellulose) (HPC)) was 91 % of control.

With `O=C1C2=C(C(=O)c3cnccc31)C1C=CC2CC1` (configuration not stated) the T/C (dose: 25.0 mg/kg/injection, schedule: Q01DX005 (ip), vehicle: DMSO) was 98 % of control, the T/C (dose: 50.0 mg/kg/injection, schedule: Q01DX005 (ip), vehicle: DMSO) was 92 % of control and 98 % of control and the T/C [3] was 106 % of control. For the same compound, the T/C (dose: 100.0 mg/kg/injection, schedule: Q01DX005 (ip), vehicle: DMSO) was 122 % of control, the T/C [4] was 103 % of control and the T/C [5] was 98 % of control.

In the case of `CN(C)CCn1c2ccccc2c2cc([N+](=O)[O-])ccc21`, the T/C [9] is reported as 102 % of control, the T/C [10] is reported as 105 % of control and the T/C [11] is reported as 108 % of control.

With `CC1=CC(=O)[C@@H](O)[C@]2(C)[C@H]3[C@@H](O)[C@H](O)[C@@](C)(O)[C@@H]4[C@@H](O)C(=O)O[C@H](C[C@@H]12)[C@]34C` the T/C (dose: 1.0 mg/kg/injection, schedule: Q01DX009 (ip), vehicle: saline + alcohol) was 99 % of control, the T/C (dose: 2.0 mg/kg/injection, schedule: Q01DX009 (ip), vehicle: saline + alcohol) was 101 % of control and the T/C (dose: 4.0 mg/kg/injection, schedule: Q01DX009 (ip), vehicle: saline + alcohol) was 99 % of control. For the same compound, the T/C (dose: 8.0 mg/kg/injection, schedule: Q01DX009 (ip), vehicle: saline + alcohol) was 99 % of control.

For `O=C(O)C(O)C(F)(F)C(F)(F)C(F)(F)C(F)(F)C(O)C(=O)O` (configuration not stated), the T/C (dose: 60.0 mg/kg/injection, schedule: Q01DX005 (ip), vehicle: saline) was 93 % of control, the T/C (dose: 120.0 mg/kg/injection, schedule: Q01DX005 (ip), vehicle: saline) was 93 % of control and the T/C (dose: 240.0 mg/kg/injection, schedule: Q01DX005 (ip), vehicle: saline) was 86 % of control.

With `CC(NC(=O)C(CO)NC(=O)CN)C(=O)O` (configuration not stated) the T/C (dose: 50.0 mg/kg/injection, schedule: Q01DX005 (ip), vehicle: saline) was 101 % of control, the T/C (dose: 100.0 mg/kg/injection, schedule: Q01DX005 (ip), vehicle: saline) was 99 % of control and the T/C (dose: 200.0 mg/kg/injection, schedule: Q01DX005 (ip), vehicle: saline) was 105 % of control.

`O=C(OCC(OC(=O)c1ccccc1)C(OC(=O)c1ccccc1)C(OC(=O)c1ccccc1)C(OC(=O)c1ccccc1)c1nn[nH]n1)c1ccccc1` (configuration not stated) was tested, and the T/C (dose: 12.5 mg/kg/injection, schedule: Q01DX005 (ip), vehicle: saline with Tween-80) was 94 % of control, the T/C (dose: 25.0 mg/kg/injection, schedule: Q01DX005 (ip), vehicle: saline with Tween-80) was 86 % of control and the T/C (dose: 50.0 mg/kg/injection, schedule: Q01DX005 (ip), vehicle: saline with Tween-80) was 90 % of control and 100 % of control. The T/C (dose: 100.0 mg/kg/injection, schedule: Q01DX005 (ip), vehicle: saline with Tween-80) was 100 % of control and the T/C (dose: 200.0 mg/kg/injection, schedule: Q01DX005 (ip), vehicle: saline with Tween-80) was 96 % of control.
